pIC50: −log10 of the molar value. Counter-ions that a name gives are not always drawn.

One test addresses T1, DYRK2 kinase (Homo sapiens, UniProt Q92630).
T1 sequence (Q92630 1-601): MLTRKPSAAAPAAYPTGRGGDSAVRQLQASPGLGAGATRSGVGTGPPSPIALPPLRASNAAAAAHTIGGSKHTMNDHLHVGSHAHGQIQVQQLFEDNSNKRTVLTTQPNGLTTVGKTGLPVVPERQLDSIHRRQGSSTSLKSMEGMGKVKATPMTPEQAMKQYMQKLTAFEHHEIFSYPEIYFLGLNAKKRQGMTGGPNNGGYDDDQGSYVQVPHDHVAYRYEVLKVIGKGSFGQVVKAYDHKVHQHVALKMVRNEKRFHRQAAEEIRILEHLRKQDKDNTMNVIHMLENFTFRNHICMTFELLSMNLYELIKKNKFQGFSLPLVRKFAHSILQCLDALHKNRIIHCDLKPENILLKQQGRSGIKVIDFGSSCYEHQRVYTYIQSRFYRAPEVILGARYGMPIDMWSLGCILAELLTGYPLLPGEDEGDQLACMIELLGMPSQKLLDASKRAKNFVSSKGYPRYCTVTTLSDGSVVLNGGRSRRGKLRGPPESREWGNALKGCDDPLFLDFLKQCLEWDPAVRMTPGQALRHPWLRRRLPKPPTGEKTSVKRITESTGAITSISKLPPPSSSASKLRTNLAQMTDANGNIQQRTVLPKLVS
Put plainly: DYRK2 kinase activity analysis assay (33P-ATP, DYRKtide substrate, P81 filter paper). In kind it is biochemical. The settings on record: 2 hours at room temperature, read-out: IC50.
In the case of `Cc1cnc(Nc2ccc(CN3CCN(C(C)C)CC3)cn2)nc1-c1ccc2scnc2c1` [Example 1, 4-(benzothiazole-5-yl)-N-(5-((4-isopropylpiperazine-1-yl)methyl)pyridine-2-yl)-5-methylpyri midine-2-amine], the negative-log IC50 (pIC50) (as a rule, the negative decadic logarithm of the IC50, by convention in mol/L) is 5.83.
The same measure, in the same setting: to `Cc1cnc(Nc2ccc(CN3CCNCC3)cn2)nc1-c1ccc2scnc2c1` [Example 2, hydrochloride] belongs 5.85; to `CCN1CCN(C(=O)c2ccc(Nc3ncc(C)c(-c4ccc5scnc5c4)n3)nc2)CC1` [Example 3, (6-((4-(benzothiazole-5-yl)-5-methylpyrimidine-2-yl)amino)pyridine-3-yl)(4-ethylpiperazine-1-yl)ketone], 6.30; to `Cc1cnc(Nc2ccc(C(=O)N3CCN(C(=O)OC(C)(C)C)CC3)cn2)nc1-c1ccc2scnc2c1` [Example 4, tert-butyl 4-(6-((4-(benzothiazole-5-yl)-5-methylpyrimidine-2-yl)amino)nicotinoyl)piperazine-1-carboxylate], 6.57.
On the same count and under the same terms, as for `Cc1cnc(Nc2ccc(C(=O)N3CCNCC3)cn2)nc1-c1ccc2scnc2c1` [Example 5, (6-((4-(benzothiazole-5-yl)-5-methylpyrimidine-2-yl)amino)pyridine-3-yl)(piperazine-1-yl)ketone hydrochloride], the figure is 6.45; as for `COc1cnc(Nc2ccc(C(=O)N3CCNCC3)cn2)nc1-c1ccc2scnc2c1` [Example 6, (6-((4-(benzothiazole-5-yl)-5-methoxypyrimidine-2-yl)amino)pyridine-3-yl)(piperazine-1-yl)k etone hydrochloride], 6.11.
The same measure, in the same setting: as for `COc1cnc(Nc2ccc(CN3CCNCC3)cn2)nc1-c1ccc2scnc2c1` [Example 7, 4-(benzothiazole-5-yl)-5-methoxy-N-(5-(piperazine-1-ylmethyl)pyridine-2-yl)pyrimidine-2-amine hydrochloride], the figure is 6.11; as for `c1cc(-c2ccc3scnc3c2)nc(Nc2ccc(CN3CCNCC3)cn2)n1` [Example 8, 4-(benzothiazole-5-yl)-N-(5-(piperazine-1-methylene)pyridine-2-yl)pyrimidine-2-amine hydrochloride], 6.20; as for `CCN1CCN(C(=O)c2ccc(Nc3nccc(-c4ccc5scnc5c4)n3)nc2)CC1` [Example 9, (6-((4-(benzothiazole-5-yl)pyrimidine-2-yl)amino)pyridine-3-yl)(4-ethylpiperazine-1-yl)ketone], 7.17.
For `CC(C)(C)OC(=O)N1CCN(C(=O)c2ccc(Nc3nccc(-c4ccc5scnc5c4)n3)nc2)CC1` [Example 10, tert-butyl 4-(6-((4-(benzothiazole-5-yl)pyrimidine-2-yl)amino)nicotinoyl)piperazine-1-carboxylate], the pIC50 is 7.00.
Same read-out and setting: to `O=C(c1ccc(Nc2nccc(-c3ccc4scnc4c3)n2)nc1)N1CCNCC1` [Example 11, (6-((4-(benzothiazole-5-yl)pyrimidine-2-yl)amino)pyridine-3-yl)(piperazine-1-yl)ketone hydrochloride] belongs 6.72; to `CCN1CCN(Cc2ccc(Nc3ncc(F)c(-c4ccc5scnc5c4)n3)nc2)CC1` [Example 12], 6.37.
Still for that read-out and setting: to `Fc1cnc(Nc2ccc(CN3CCNCC3)cn2)nc1-c1ccc2scnc2c1` [Example 13, 4-(benzothiazole-5-yl)-5-fluoro-N-(5-(piperazine-1-methylene)pyridine-2-yl)pyrimidine-2-amine hydrochloride] belongs 6.67; to `CCN1CCN(C(=O)c2ccc(Nc3ncc(F)c(-c4ccc5scnc5c4)n3)nc2)CC1` [Example 14, (6-((4-(benzothiazole-5-yl)-5-fluoropyrimidine-2-yl)amino)pyridine-3-yl)(4-ethylpiperazine-1-yl)ketone], 7.66.
Same read-out and setting: as for `CC(=O)N1CCN(C(=O)c2ccc(Nc3ncc(F)c(-c4ccc5scnc5c4)n3)nc2)CC1` [Example 15, 1-(4-(6-((4-(benzothiazole-5-yl)-5-fluoropyrimidine-2-yl)amino)nicotinoyl)piperazine-1-yl)ethyl-1-one], the figure is 7.55.
For the compound `O=C(c1ccc(Nc2ncc(F)c(-c3ccc4scnc4c3)n2)nc1)N1CCN(c2ccccc2)CC1` [Example 17, (6-((4-(benzothiazole-5-yl)-5-fluoropyrimidine-2-yl)amino)pyridine-3-yl)(4-phenylpiperazine-1-yl)ketone], the pIC50 is 7.25.
On to `CCOC(=O)N1CCN(C(=O)c2ccc(Nc3ncc(F)c(-c4ccc5scnc5c4)n3)nc2)CC1` [Example 18, ethyl 4-(6-((4-(benzothiazole-5-yl)-5-fluoropyrimidine-2-yl)amino)nicotinoyl) piperazine-1-carboxylate], for which the pIC50 is 7.54.
In the case of `CC(C)(C)OC(=O)N1CCN(C(=O)c2ccc(Nc3ncc(F)c(-c4ccc5scnc5c4)n3)nc2)CC1` [Example 19, tert-butyl 4-(6-((4-(benzothiazole-5-yl)-5-fluoropyrimidine-2-yl)amino)nicotinoyl)piperazine-1-carboxylate], the pIC50 was 7.15.
Same read-out and setting: as for `CCN1CCN(C(=O)c2cnc(Nc3ncc(F)c(-c4ccc5scnc5c4)n3)nc2)CC1` [Example 21, (2-((4-(benzothiazole-5-yl)-5-fluoropyrimidine-2-yl)amino)pyrimidine-5-yl)(4-ethylpiperazine-1-yl)ketone], the figure is 5.98; as for `CC(C)(C)OC(=O)N1CCN(C(=O)c2cnc(Nc3ncc(F)c(-c4ccc5scnc5c4)n3)nc2)CC1` [Example 22, tert-butyl 4-(2-((4-(benzothiazole-5-yl)-5-fluoropyrimidine-2-yl)amino)pyrimidine-5-carbonyl)piperazine-1-c arboxylate], 6.27; as for `O=C(c1cnc(Nc2ncc(F)c(-c3ccc4scnc4c3)n2)nc1)N1CCNCC1` [Example 23, (2-((4-(benzothiazole-5-yl)-5-fluoropyrimidine-2-yl)amino)pyrimidine-5-yl)(piperazine-1-yl)k etone hydrochloride], 6.16.
For `CCN1CCN(C(=O)c2ccc(Nc3ncc(F)c(-c4ccc5scnc5c4)n3)cn2)CC1` [Example 24, (5-((4-(benzothiazole-5-yl)-5-fluoropyrimidine-2-yl)amino)pyridine-2-yl)(4-ethylpiperazine-1-yl)ketone], the pIC50 was 7.82.
On the same count and under the same terms, to `CC(C)(C)OC(=O)N1CCN(c2ccc(Nc3ncc(F)c(-c4ccc5scnc5c4)n3)cn2)CC1` [Example 25, tert-butyl 4-(5-((4-(benzothiazole-5-yl)-5-fluoropyrimidine-2-yl)amino)pyridine-2-yl)piperazine-1-carboxylate] belongs 7.80; to `O=C(c1ccc(Nc2ncc(F)c(-c3ccc4scnc4c3)n2)cn1)N1CCNCC1` [Example 26, (5-((4-(benzothiazole-5-yl)-5-fluoropyrimidine-2-yl)amino)pyridine-2-yl)(piperazine-1-yl)ketone hydrochloride], 8.40; to `CN(C)c1nc2cc(-c3nc(Nc4ccc(C(=O)N5CCNCC5)cn4)ncc3F)ccc2s1` [Example 27, (6-((4-(2-(dimethylamino)benzothiazole-5-yl)-5-fluoropyrimidine-2-yl)amino)pyridine-3-yl)(piperazine-1-yl)ketone hydrochloride], 7.74.
Still for that read-out and setting: as for `CCN(CC)c1nc2cc(-c3nc(Nc4ccc(C(=O)N5CCNCC5)cn4)ncc3F)ccc2s1` [Example 28, (6-((4-(2-(diethylamino)benzothiazole-5-yl)-5-fluoropyrimidine-2-yl)amino)pyridine-3-yl)(piperazine-1-yl)ketone hydrochloride], the figure is 7.46; as for `CCN1CCN(C(=O)c2ccc(Nc3ncc(F)c(-c4ccc5sc(N(C)C)nc5c4)n3)cn2)CC1` [Example 29, (5-((4-(2-(dimethylamino)benzothiazole-5-yl)-5-fluoropyrimidine-2-yl)amino)pyridine-2-yl)(4-ethylpiperazine-1-yl)ketone], 7.96.
The same measure, in the same setting: to `CC(C)N1CCN(C(=O)c2ccc(Nc3ncc(F)c(-c4ccc5sc(N(C)C)nc5c4)n3)cn2)CC1` [Example 30, (5-((4-(2-(dimethylamino)benzothiazole-5-yl)-5-fluoropyrimidine-2-yl)amino)pyridine-2-yl)(4-isopropylpiperazine-1-yl)ketone] belongs 7.89.
With `CN(C)c1nc2cc(-c3nc(Nc4ccc(C(=O)N5CCNCC5)nc4)ncc3F)ccc2s1` [Example 32, (5-((4-(2-(dimethylamino)benzothiazole-5-yl)-5-fluoropyrimidine-2-yl)amino)pyridine-2-yl)(piperazine-1-yl)ketone hydrochloride], the negative-log IC50 (pIC50) is 8.05.
`CCN1CCN(C(=O)c2ccc(Nc3ncc(F)c(-c4ccc5sc(N(CC)CC)nc5c4)n3)cn2)CC1` [Example 33, (5-((4-(2-(diethylamino)benzothiazole-5-yl)-5-fluoropyrimidine-2-yl)amino)pyridine-2-yl)(4-ethylpiperazine-1-yl)ketone]: the pIC50 is 7.54.

Staying with this test, now noted: IC50 (nM), 2 hours at room temperature.
Turning to `CN(C)c1nc2cc(-c3nc(Nc4ccc(C(=O)N5CCN(C(=O)OC(C)(C)C)CC5)nc4)ncc3F)ccc2s1` [Example 31], the IC50 (usually the concentration needed to halve the response being measured) came to 590 nM.
